Source: patent US20090186814A1, “Methods and Compositions for Reducing Ischemia-Derived Microvascular Damage” (priority 2005, published 2009)
Read-outs that look alike come from different tables or passages of the source. Ends that are not written are not given here. Peptide text beside a SMILES is read from it. * marks the point of attachment. Cbz = O=C(OCc1ccccc1)*; CH2F = FC*

Key:
[1] = tested on: rabbit femoral arteries; conditions: in vivo rabbit femoral arteries; cited from earlier work
[2] = tested on: rat myocardium; conditions: in vivo rat myocardium; cited from earlier work
[3] = tested on: caspase-3; conditions: cited from earlier work
[4] = tested on: Yorkshire swine; type: in vivo, pig; parameters: key to CFR(Cx) / CFR(LAD): hyperemic average peak velocity ÷ baseline average peak velocity; conditions: for CFR(LAD): adenosine hyperemia; for CFR(Cx): unaffected left circumflex artery
Protocol: Yorkshire swine (30-45kg) were maintained during the every procedure under anesthesia by inhaled isoflurane (1-2%). A bolus of 300 IU/kg heparin was administered intravenously through the sheath (6 French) placed in the carotid artery. A 10 mm, over-the-wire angioplasty balloon was placed in the left anterior descending artery (LAD) proximal to the first diagonal branch. The balloon was inflated to occlude the LAD for 30 minutes. At the last 1 minute of a 30-minute ischemia, Tat-conjugated δV1-1 (250 ng/kg) or saline was infused at 1 mL/minute for 1 minute through the guide-wire lumen of the balloon catheter (n=9 for each group). Left ventriculogram (LVG) was obtained (40° left anterior oblique projection, 30 frames/sec) to measure cardiac function at 5 time points; before ischemia (baseline), 30 minutes, 24 hours, 5 days, and 10 days after ischemia (n=9 for each group). Ejection fraction (EF) and hypokinetic area were calculated using the software (Plus Plus, Sanders Data System, Calif.) with elimination of frames after premature ventricular contraction beats. Blood pressure and heart rate were measured just before LVG measurements at each time point through the water-filled catheter (Table 1). Coronary flow was measured by a 0.014″ Doppler-tipped guide wire (Flowire, JOMED Inc.) in the LAD, and the unaffected, left circumflex artery (LCx). The wire tip was placed 2 cm distal from the balloon-occluded site in the LAD. After stable baseline flow velocity was recorded, adenosine [endothelium-independent vasodilator; 48 μg; Suryapranata, H., et al., Circulation 89:1109-1117 (1994)] was infused intracoronarily to induce hyperemia (a transient increase in coronary blood flow through microvascular vasodilation) at 5 time points: before ischemia (baseline), 30 minutes, 24 hours, 5 days, and 10 days after ischemia (n=9 for each group). Bradykinin [endothelium-dependent vaodilator, 0.2ml of a 3×10^−6M in saline; Rodriguez-Sinovas, A., et al., J. Appl. Physiol. 95:81-88 (2003)] was also infused intracoronary before ischemia and 24 hours after reperfusion (n=6 for each group). Coronary flow reserve was calculated by dividing the average peak velocity (APV) at hyperemic phase by the baseline APV as described in Suryapranata, H., et al., Circulation 89:1109-1117 (1994). After reperfusion, to determine the area at risk in porcine hearts, LAD ligation was performed at the balloon-occluded site and Evan's Blue (0.0025%) was perfused as previously described in Inagaki, K., et al., Circulation 2304-2307 (2003). All other methods were performed as described in Example 1.

[5] = tested on: endothelial cells and myocytes of porcine hearts; assay: TUNEL staining and electron microscopy of porcine cardiac tissue 4 hours after reperfusion; type: in vivo, pig
Protocol: (§1) At the end of the reperfusion, 1 -mm-thick transverse sections of mouse hearts were incubated in triphenyltetrazolium chloride solution (TTC) (1% in phosphate buffer, pH 7.4) at 37° C. for 15 minutes as described in Inagaki, K. et al., Circulation 108:869-875 (2003) to determine the viable myocardium. One cm-thick transverse segments of the hearts were stained with TTC. Infarct size was expressed as a percentage of the total area at risk. Immunohistochemistry was performed on cardiac tissue two hours after reperfusion in murine hearts (n=5 for each group) as described in Vakeva, A. P., et al., Circulation 97:2259-2267 (1998). Hearts were immediately frozen in Optimal Cutting Temperature (OCT) Compound, and 5-μm-thick cryosections were obtained. Sections were fixed with 4% formaldehyde, blocked with 1 % normal donkey serum and incubated with mouse monoclonal anti-(x-actinin antibody (Sigma-Aldrich) or goat anti-PECAM-1 antibody (Santa Cruz Biochemicals) to distinguish between endothelial cells and myocytes. Secondary antibody treatments were carried out using goat anti-mouse IgG antibody conjugated with FITC or donkey anti-goat lgG antibody conjugated with FITC (Molecular Probe). Terminal deoxynucleotidyl transferase-mediated dUTP nick-end labeling (TUNEL) staining was performed for detection of apoptotic cells (Roche) and nuclei were counterstained with 4, 6-diamidino-2-phenylindole (DAPI; Sigma-Aldrich). Tissue samples from the non-ischemic area were used as negative control. TUNEL-positive nuclei were counted in a total of 1,500 myocytes and 500 of endothelial cells over several random fields.
Immunohistochemistry was performed on cardiac tissue as described in Example 1 with the exception that immunohisotchemistry was performed 4 hours after reperfusion in porcine hearts (n=3 for each group).
Electron microscopy study was performed on porcine cardiac tissue 4 hours after reperfusion (n=3 for each group). Samples taken from the mid-myocardium were fixed (FIG. 3A) and prepared as previously reported in Gottlieb, R. A., et al., J. Clin Invest. 94:1621-1628 (1994). Ultra-thin sections were stained with uranyl acetate lead citrate and examined with the H300 (Hitachi) electron microscopy. All other methods were as previously described in Examples 1 and 2.

[6] = tested on: adult rat cardiomyocytes; conditions: cited from earlier work
[7] = tested on: mouse hearts; assay: Ex vivo model of global ischemia and reperfusion injury, Langendorff-perfused mouse hearts (WT and δV1-1 transgenic)
Protocol: Transgenic mice (TG) that selectively express δV1-1 in myocytes were created using α- myosin heavy chain promoter. Hah, H. S., et al., Circ. Res. 91:741-748 (2002). Hemodynamic and morphometric parameters in these transgenic mice, as measured by echocardiographic measurements in vivo, were not different from those measured in wild type mice (WT). Inagaki, K., et al., Circulation 108:869-875 (2003). Mice were heparinized (4000U/kg IP) and anesthetized with sodium pentobarbital (200mg/kg IP). Hearts were perfused with an oxygenated Krebs-Henseleit buffer at 37° C. in a Langendorff system as previously described in Inagaki, K., et al., Circulation 108:869-875 (2003). Hearts were subjected to a 30-minute global ischemia and a 120-minute full reperfusion. The coronary flow rate was kept constant at 3 mL/minute (0.04L/min/g; initial coronary perfusion pressure: WT 67.4±5.1, WT+δV1-1 61.0±4.6, TG 62.6±3.9, TG+δV1-1 64.6±5.4 mmHg; PENS, n=5 for each group; FIG. 1) using an adjustable-speed rotary pump during the experiment to provide 60-80 mmHg of initial coronary perfusion pressure (CPP) as previously reported in Webster, K. A., et al., J. Clin. Invest. 104:239-252 (1999). CPP was measured through a sidearm in the Langendorff system. Coronary vascular resistance (CVR) was defined as CPP divided by coronary flow rate. Hearts were perfused with Tat-conjugated δV1-1 [50 nmol/L; Tat-conjugated δV1-1 described in Chen, L. et al., Proc. Natl. Acad. Sci. U.S.A. 98:11114-11119 (2001)] or vehicle (control) during the first 20 minutes of reperfusion (n=5 for each group). Coronary perfusion effluent was collected to determine creatine phosphokinase (CPK) release.
as §1
Data are expressed as mean±SEM. Two-way ANOVA for repeated measures was used for time-course of cardiac function and vascular function, 1-way factorial ANOVA with Fisher's test for multiple comparisons, and unpaired or paired student's t-test for difference between 2 groups. P<0.05 was considered statistically significant.

[8] = tested on: caspase-3; conditions: myocardium; cited from earlier work
[9] = LAD, Baseline (before ischemia)
[10] = electron microscopy, 4 hours after reperfusion
[11] = electron microscopy, 4 hours after reperfusion, listed as δV1-
[12] = four hours after reperfusion, TUNEL, n=3
[13] = further δV1-1 infusion to the transgenic hearts
[14] = transgenic mouse hearts, exogenous δV1-1
[15] = wild type hearts, exogenous δV1-1
[16] = wild type hearts, δV1-1 delivered through coronary arteries, 50 nmol/L, first 20 minutes of reperfusion

COC(=O)C[C@H](NC(=O)[C@H](C)NC(=O)[C@@H](NC(=O)OCc1ccccc1)C(C)C)C(=O)CF [ZVADfmk] (Cbz-Val-Ala-Asp(OMe)-CH2F)
staurosporin-induced endothelial apoptosis [1]: reduces
reperfusion injury [2]: reduces reperfusion injury

CC(=O)c1c(O)c(C)c(O)c(Cc2c(O)c3c(c(C(=O)/C=C/c4ccccc4)c2O)OC(C)(C)C=C3)c1O [rottlerin]
caspase-3 activity [3]: attenuated

δV1-1: δPKC inhibitor peptide, SEQ ID NO:1 (SFNSYELGSL), amino acids 8-17 of rat δPKC; used Tat-conjugated in the examples (also: Tat conjugate in examples; listed as Rattus norvegicus)
CFR(LAD) ([4]; 30 min R): 2.00 ± 0.20
coronary flow reserve in LAD following bradykinin infusion ([4]; 24 hours after reperfusion, n=6): did not decrease
CFR(LAD) ([4]; 24 hr R): 2.50 ± 0.24
CFR(LAD) ([4]; 5 days R): 2.68 ± 0.21
CFR(LAD) ([4]; 10 days R): 2.67 ± 0.27
ejection fraction ([4]; 10 days after ischemia, n=9): 69.9±1.6%
hypokinetic area ([4]; 10 days after ischemia, n=9): 4.7±2.0%
CFR(LAD) ([4]; Baseline (before ischemia)): 2.52 ± 0.16
b-APV (baseline average peak flow velocity) ([4]; Cx, 30 min R): 20.3 ± 3 cm/s
h-APV (hyperemia average peak flow velocity) ([4]; Cx, 30 min R): 37 ± 3 cm/s
b-APV (baseline average peak flow velocity) ([4]; Cx, 24 hr R): 15 ± 2 cm/s
h-APV (hyperemia average peak flow velocity) ([4]; Cx, 24 hr R): 30 ± 4 cm/s
b-APV (baseline average peak flow velocity) ([4]; Cx, 5 days R): 25 ± 5 cm/s
h-APV (hyperemia average peak flow velocity) ([4]; Cx, 5 days R): 55 ± 10 cm/s
b-APV (baseline average peak flow velocity) ([4]; Cx, 10 days R): 25 ± 3 cm/s
h-APV (hyperemia average peak flow velocity) ([4]; Cx, 10 days R): 55 ± 5 cm/s
b-APV (baseline average peak flow velocity) ([4]; Cx, Baseline (before ischemia)): 24 ± 2 cm/s
h-APV (hyperemia average peak flow velocity) ([4]; Cx, Baseline (before ischemia)): 61 ± 3 cm/s
b-APV (baseline average peak flow velocity) ([4]; LAD, 30 min R): 27 ± 4 cm/s
h-APV (hyperemia average peak flow velocity) ([4]; LAD, 30 min R): 49 ± 4 cm/s
b-APV (baseline average peak flow velocity) ([4]; LAD, 24 hr R): 18 ± 1 cm/s
h-APV (hyperemia average peak flow velocity) ([4]; LAD, 24 hr R): 46 ± 6 cm/s
b-APV (baseline average peak flow velocity) ([4]; LAD, 5 days R): 24 ± 3 cm/s
h-APV (hyperemia average peak flow velocity) ([4]; LAD, 5 days R): 67 ± 9 cm/s
b-APV (baseline average peak flow velocity) ([4]; LAD, 10 days R): 25 ± 4 cm/s
h-APV (hyperemia average peak flow velocity) ([4]; LAD, 10 days R): 57 ± 6 cm/s
b-APV (baseline average peak flow velocity) [4, 9]: 24 ± 3 cm/s
h-APV (hyperemia average peak flow velocity) [4, 9]: 58 ± 7 cm/s
resting APV and coronary flow reserve in left circumflex artery (LCx, control artery) ([4]; all time points): remained normal
infarct size ([4]; intracoronary treatment at the time of reperfusion, 10 days after ischemia, n=9): 4.4±1.1%
blood pressure, heart rate or vessel diameter vs. control group ([4]; pig, in vivo): no significant differences
CFR(Cx) ([4]; 30 min R): 1.73 ± 0.21
CFR(Cx) ([4]; 24 hr R): 1.96 ± 0.04
CFR(Cx) ([4]; 5 days R): 2.01 ± 0.14
CFR(Cx) ([4]; 10 days R): 2.46 ± 0.20
CFR(Cx) ([4]; Baseline (before ischemia)): 2.44 ± 0.10
time until coronary flow reserve (adenosine, LAD) was normalized ([4]; δV1-1-treated pigs): ≤ 24 h
coronary flow reserve following adenosine infusion in LAD after reperfusion ([4]; δV1-1-treated pigs, 250 ng/kg intracoronary at last 1 minute of ischemia): minor decrease
endothelial cell swelling [5, 10]: minimal swelling
microvasculature lumen [5, 10]: patent
myocyte damage (contraction bands, swollen mitochondria) [5, 10]: no such pathological changes were observed
obstruction of capillaries by red and white blood cells [5, 10]: rarely seen
endothelial cell swelling [5, 11]: slight endothelial swelling
myocyte damage (contraction bands, swollen mitochondria) [5, 11]: neither contraction bands nor swollen mitochondria
decrease of apoptosis in endothelial cells [5, 12]: about 70%
decrease of apoptosis in myocytes [5, 12]: about 70%
hyperglycemia-induced apoptosis [6]: inhibits
free radical formation ([6]; hyperglycemia): inhibits
coronary vascular resistance (CVR) during reperfusion ([7]; further treatment of transgenic mouse hearts): significantly minimized the rise of CVR
CPK release [7, 13]: unaffected
infarct size [7, 13]: unaffected
TUNEL-positive myocytes [7, 14]: without any further effect
decrease of TUNEL-positive endothelial cells [7, 14]: 80%
reduction of number of TUNEL positive endothelial cells [7, 15]: 80%
reduction of number of TUNEL positive myocytes [7, 15]: 80%
decrease in CPK release [7, 16]: about 70%
decrease in infarct size [7, 16]: about 70%
reperfusion-induced caspase-3 activity [8]: reduced
